Laboratory results published in PubChem BioAssay (NCI).
Where “and” joins values, the source holds several entries; their conditions need not be identical. Equal values may be shown once.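 Cultured in 96-well plates, cells were exposed to test compound for 48 hours across five concentrations. The concentration for 50% growth inhibition is given as GI50. The concentration for full growth arrest is given as TGI.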

tested on: ACHN renal; test: NCI-60 cell line screen, 48 h

First: CC1(C)N=C(N)N=C(N)N1c1ccc(CCCCc2ccc(Cl)cc2S(=O)(=O)F)c(Cl)c1
Second: O=C(Nc1ccc(Br)cc1F)c1cc(F)ccc1O
The GI50 of the first is 5.3-fold higher: 2.62 µM for the first, 0.499 µM for the second.

Going from O=C(Nc1ccc(Nc2ccncc2)cc1)c1ccc([N+](=O)[O-])cc1 to S=C(Nc1ccc(Cl)cc1)Nc1ccc(-c2nc3ccccc3s2)cc1, the GI50 rises from 4.62 µM to 15.4 µM (3.3-fold).

Compared with COc1ccccc1/C=N\N/C(N)=N\N=C\c1ccccc1OC, c1ccc(-c2nnc(-c3ccccn3)s2)nc1 is higher in GI50: 2.82 µM for the first, greater than 100 µM for the second.

CC[As](CC)SC[C@H](C)C(=O)N1CCC[C@H]1C(=O)O and COC(=O)C[C@](O)(CCCC(C)(C)O)C(=O)O[C@@H]1C(OC)=C[C@]23CCCN2CCc2cc4c(cc2[C@H]13)OCO4 are within 1.5-fold of each other in GI50: 0.0548 µM for the first, 0.0407 µM for the second.

Going from Oc1ccc(Nc2ncnc3c2sc2ncccc23)cc1 to CC(=O)Nc1ccc(S(=O)(=O)N2C(=O)CCC2C(=O)Nc2ccc(Br)cc2)cc1 (stereo unspecified), the GI50 rises from less than 0.01 µM to 2.13 µM.

COc1cccc(CC(C)=C(c2ccc(OCCN(C)C)cc2)c2ccc(OCCN(C)C)cc2)c1 and CN1CCN(C2CCN(C(=O)Nc3cc(Oc4ccc(NC(=O)C5(C(=O)Nc6ccc(F)cc6)CC5)c(F)c4)ccn3)CC2)CC1 are within 1.5-fold of each other in GI50: 1.04 µM for the first, 1.3 µM for the second.

COc1cc(C(=O)N2CCN(C=O)C2=S)cc(OC)c1OC and Cn1c(I)c(C#CCO[Si](C)(C)C(C)(C)C)c(=O)[nH]c1=O are within 1.5-fold of each other in GI50: 20.1 µM for the first, 15.9 µM for the second.

With CCCCC#CC1=C(Br)C(=O)OC1 the GI50 was 2.24 µM.

Compared with CC1(C)N=C(N)N=C(N)N1c1ccc(CCCCc2ccc(Cl)cc2S(=O)(=O)F)c(Cl)c1, O=C(Nc1ccc(Br)cc1F)c1cc(F)ccc1O is 1.6-fold lower in TGI: 17.6 µM for the first, 11.3 µM for the second.

Compared with O=C(Nc1ccc(Nc2ccncc2)cc1)c1ccc([N+](=O)[O-])cc1, S=C(Nc1ccc(Cl)cc1)Nc1ccc(-c2nc3ccccc3s2)cc1 is 2.3-fold higher in TGI: 19.7 µM for the first, 45.4 µM for the second.

COc1ccccc1/C=N\N/C(N)=N\N=C\c1ccccc1OC and c1ccc(-c2nnc(-c3ccccn3)s2)nc1 cannot be ordered by TGI: greater than 53.1 µM for the first, greater than 100 µM for the second.

Going from CC[As](CC)SC[C@H](C)C(=O)N1CCC[C@H]1C(=O)O to C=C1C(=O)OC2CC(C)C(C(CC(C)=O)OC(C)=O)=CCC12 (stereo unspecified), the TGI rises from 0.169 µM to 22.4 µM (130-fold).

Going from Oc1ccc(Nc2ncnc3c2sc2ncccc23)cc1 to O=c1/c(=C/c2ccccc2[N+](=O)[O-])sc2nnc(-c3ccco3)n12, the TGI rises from 1.42 µM to greater than 100 µM.

Compared with COc1cccc(CC(C)=C(c2ccc(OCCN(C)C)cc2)c2ccc(OCCN(C)C)cc2)c1, CC(=O)Nc1ccc(S(=O)(=O)N2C(=O)CCC2C(=O)Nc2ccc(Br)cc2)cc1 (stereo unspecified) is 3.6-fold higher in TGI: 3.35 µM for the first, 12.2 µM for the second.

Going from CC(=O)CCn1ncc(Cl)c(Cl)c1=O to Cc1cn2c(=O)c3ncn(C4OC(CO)C(O)C4O)c3n(C)c2n1 (stereo unspecified), the TGI rises from 30.9 µM to greater than 100 µM.

Compared with C[N+](C)(C)CC1CCCc2ccccc2C1=O (stereo unspecified), Cn1c(I)c(C#CCO[Si](C)(C)C(C)(C)C)c(=O)[nH]c1=O is 3-fold higher in TGI: 9.71 µM for the first, 29.5 µM for the second.

COc1cc(C(=O)N2CCN(C=O)C2=S)cc(OC)c1OC and CN1CCN(C2CCN(C(=O)Nc3cc(Oc4ccc(NC(=O)C5(C(=O)Nc6ccc(F)cc6)CC5)c(F)c4)ccn3)CC2)CC1 cannot be ordered by TGI: 44.1 µM for the first, greater than 10 µM for the second.

For CCCCC#CC1=C(Br)C(=O)OC1, the TGI was greater than 21 µM.

With COC(=O)C[C@](O)(CCCC(C)(C)O)C(=O)O[C@@H]1C(OC)=C[C@]23CCCN2CCc2cc4c(cc2[C@H]13)OCO4 the TGI was 4.64 µM and 0.541 µM.

tested on: HL-60(TB) leukemia; test: NCI-60 cell line screen, 48 h

First: CC1(C)N=C(N)N=C(N)N1c1ccc(CCCCc2ccc(Cl)cc2S(=O)(=O)F)c(Cl)c1
Second: O=C(Nc1ccc(Br)cc1F)c1cc(F)ccc1O
The GI50 of the first is 4.5-fold lower: 0.107 µM for the first, 0.485 µM for the second.

First: O=C(Nc1ccc(Nc2ccncc2)cc1)c1ccc([N+](=O)[O-])cc1
Second: S=C(Nc1ccc(Cl)cc1)Nc1ccc(-c2nc3ccccc3s2)cc1
The GI50 of the first is 1.9-fold lower: 4.43 µM for the first, 8.22 µM for the second.

First: COc1ccccc1/C=N\N/C(N)=N\N=C\c1ccccc1OC
Second: c1ccc(-c2nnc(-c3ccccn3)s2)nc1
The GI50 of the first is lower: 0.215 µM for the first, greater than 100 µM for the second.

CC[As](CC)SC[C@H](C)C(=O)N1CCC[C@H]1C(=O)O and COC(=O)C[C@](O)(CCCC(C)(C)O)C(=O)O[C@@H]1C(OC)=C[C@]23CCCN2CCc2cc4c(cc2[C@H]13)OCO4 are within 1.5-fold of each other in GI50: 0.023 µM for the first, 0.0249 µM for the second.

Compared with Oc1ccc(Nc2ncnc3c2sc2ncccc23)cc1, CC(=O)Nc1ccc(S(=O)(=O)N2C(=O)CCC2C(=O)Nc2ccc(Br)cc2)cc1 (stereo unspecified) is 110-fold higher in GI50: 0.0288 µM for the first, 3.1 µM for the second.

Going from COc1cccc(CC(C)=C(c2ccc(OCCN(C)C)cc2)c2ccc(OCCN(C)C)cc2)c1 to CN1CCN(C2CCN(C(=O)Nc3cc(Oc4ccc(NC(=O)C5(C(=O)Nc6ccc(F)cc6)CC5)c(F)c4)ccn3)CC2)CC1, the GI50 rises from 0.667 µM to 1.39 µM (2.1-fold).

First: C[N+](C)(C)CC1CCCc2ccccc2C1=O (stereo unspecified)
Second: Cn1c(I)c(C#CCO[Si](C)(C)C(C)(C)C)c(=O)[nH]c1=O
The GI50 of the first is 2.1-fold lower: 1.16 µM for the first, 2.43 µM for the second.

Going from COc1cc(C(=O)N2CCN(C=O)C2=S)cc(OC)c1OC to CCCCC#CC1=C(Br)C(=O)OC1, the GI50 falls from 23.4 µM to 0.249 µM (94-fold).

CC1(C)N=C(N)N=C(N)N1c1ccc(CCCCc2ccc(Cl)cc2S(=O)(=O)F)c(Cl)c1 and O=C(Nc1ccc(Br)cc1F)c1cc(F)ccc1O are within 1.5-fold of each other in TGI: 3.26 µM for the first, 2.89 µM for the second.

O=C(Nc1ccc(Nc2ccncc2)cc1)c1ccc([N+](=O)[O-])cc1 and S=C(Nc1ccc(Cl)cc1)Nc1ccc(-c2nc3ccccc3s2)cc1 cannot be ordered by TGI: greater than 24.6 µM for the first, greater than 100 µM for the second.

Going from COc1ccccc1/C=N\N/C(N)=N\N=C\c1ccccc1OC to c1ccc(-c2nnc(-c3ccccn3)s2)nc1, the TGI rises from 0.558 µM to greater than 100 µM.

First: CC[As](CC)SC[C@H](C)C(=O)N1CCC[C@H]1C(=O)O
Second: C=C1C(=O)OC2CC(C)C(C(CC(C)=O)OC(C)=O)=CCC12 (stereo unspecified)
The TGI of the first is lower: 0.0757 µM for the first, greater than 29.3 µM for the second.

Oc1ccc(Nc2ncnc3c2sc2ncccc23)cc1 and O=c1/c(=C/c2ccccc2[N+](=O)[O-])sc2nnc(-c3ccco3)n12 cannot be ordered by TGI: greater than 56.5 µM for the first, 58.4 µM for the second.

First: COc1cccc(CC(C)=C(c2ccc(OCCN(C)C)cc2)c2ccc(OCCN(C)C)cc2)c1
Second: CC(=O)Nc1ccc(S(=O)(=O)N2C(=O)CCC2C(=O)Nc2ccc(Br)cc2)cc1 (stereo unspecified)
The TGI of the first is 14-fold lower: 1.34 µM for the first, 19 µM for the second.

Going from CC(=O)CCn1ncc(Cl)c(Cl)c1=O to Cc1cn2c(=O)c3ncn(C4OC(CO)C(O)C4O)c3n(C)c2n1 (stereo unspecified), the TGI rises from 63.2 µM to greater than 100 µM.

COc1cc(C(=O)N2CCN(C=O)C2=S)cc(OC)c1OC and CN1CCN(C2CCN(C(=O)Nc3cc(Oc4ccc(NC(=O)C5(C(=O)Nc6ccc(F)cc6)CC5)c(F)c4)ccn3)CC2)CC1 cannot be ordered by TGI: 44.3 µM for the first, greater than 3.33 µM for the second.

Compared with Cn1c(I)c(C#CCO[Si](C)(C)C(C)(C)C)c(=O)[nH]c1=O, CCCCC#CC1=C(Br)C(=O)OC1 is higher in TGI: 4.83 µM for the first, greater than 100 µM for the second.

In the case of COC(=O)C[C@](O)(CCCC(C)(C)O)C(=O)O[C@@H]1C(OC)=C[C@]23CCCN2CCc2cc4c(cc2[C@H]13)OCO4, the TGI is reported as 0.237 µM and 0.0758 µM.
C[N+](C)(C)CC1CCCc2ccccc2C1=O (stereo unspecified) was tested, and the TGI was 5.13 µM and 3.01 µM.

tested on: MALME-3M melanoma; test: NCI-60 cell line screen, 48 h

First: CC1(C)N=C(N)N=C(N)N1c1ccc(CCCCc2ccc(Cl)cc2S(=O)(=O)F)c(Cl)c1
Second: S=C(Nc1ccc(Cl)cc1)Nc1ccc(-c2nc3ccccc3s2)cc1
The GI50 of the first is 9.5-fold lower: 1.65 µM for the first, 15.6 µM for the second.

O=C(Nc1ccc(Nc2ccncc2)cc1)c1ccc([N+](=O)[O-])cc1 and Oc1ccc(Nc2ncnc3c2sc2ncccc23)cc1 are within 1.5-fold of each other in GI50: 4.89 µM for the first, 4.93 µM for the second.

First: COc1ccccc1/C=N\N/C(N)=N\N=C\c1ccccc1OC
Second: COc1cccc(CC(C)=C(c2ccc(OCCN(C)C)cc2)c2ccc(OCCN(C)C)cc2)c1
The GI50 of the first is 2.4-fold lower: 0.237 µM for the first, 0.564 µM for the second.

With CC[As](CC)SC[C@H](C)C(=O)N1CCC[C@H]1C(=O)O the GI50 was 0.0441 µM.

Going from CC1(C)N=C(N)N=C(N)N1c1ccc(CCCCc2ccc(Cl)cc2S(=O)(=O)F)c(Cl)c1 to S=C(Nc1ccc(Cl)cc1)Nc1ccc(-c2nc3ccccc3s2)cc1, the TGI rises from 14.9 µM to 46.4 µM (3.1-fold).

Compared with O=C(Nc1ccc(Nc2ccncc2)cc1)c1ccc([N+](=O)[O-])cc1, Oc1ccc(Nc2ncnc3c2sc2ncccc23)cc1 is higher in TGI: 17.3 µM for the first, greater than 100 µM for the second.

First: COc1ccccc1/C=N\N/C(N)=N\N=C\c1ccccc1OC
Second: COc1cccc(CC(C)=C(c2ccc(OCCN(C)C)cc2)c2ccc(OCCN(C)C)cc2)c1
The TGI of the first is 5-fold higher: 5.2 µM for the first, 1.05 µM for the second.

Compared with CC[As](CC)SC[C@H](C)C(=O)N1CCC[C@H]1C(=O)O, C=C1C(=O)OC2CC(C)C(C(CC(C)=O)OC(C)=O)=CCC12 (stereo unspecified) is 19-fold higher in TGI: 0.207 µM for the first, 3.97 µM for the second.
